Results taken from patent US8476302B2, “α-ketoamide derivatives useful endothelial lipase inhibitors” (Janssen Pharmaceutica N.V., priority 2010, dated 2013).

What was measured:
Mouse EL = molecular target: T1, Mouse EL (Mus musculus, UniProt Q9WVG5); experiment: Endothelial Lipase Assay, cell surface lipase activity (mouse); assay type: cell-based; settings: PLA1 substrate 10 μM, fluorescence reaction rate, several values in a cell are repeat determinations
T1 construct: host or cells: not described for mouse EL
T1 sequence (Q9WVG5 21-500): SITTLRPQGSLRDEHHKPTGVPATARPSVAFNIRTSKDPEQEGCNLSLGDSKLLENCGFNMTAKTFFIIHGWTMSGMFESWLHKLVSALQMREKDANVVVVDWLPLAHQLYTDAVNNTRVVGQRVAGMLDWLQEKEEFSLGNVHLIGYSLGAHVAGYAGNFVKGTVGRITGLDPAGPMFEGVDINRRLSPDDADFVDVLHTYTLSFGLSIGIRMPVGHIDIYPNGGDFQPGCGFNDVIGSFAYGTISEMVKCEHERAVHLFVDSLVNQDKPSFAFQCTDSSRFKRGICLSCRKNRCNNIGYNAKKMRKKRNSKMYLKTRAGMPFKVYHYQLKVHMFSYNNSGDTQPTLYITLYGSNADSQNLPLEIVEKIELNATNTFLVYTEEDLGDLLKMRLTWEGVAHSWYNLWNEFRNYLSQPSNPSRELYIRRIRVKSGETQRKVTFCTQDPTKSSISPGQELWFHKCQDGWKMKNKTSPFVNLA
How it was run: (§1)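 Cells expressing human or mouse EL, plated 2000 cells/well in serum-free medium for 18-24 h at 37° C, then given PLA1 substrate (10 μM final) in HBSS/25 mM HEPES pH 7.2. Fluorescence (ex 490/em 515 nm) read kinetically for 30 min at 37° C; IC50 from slopes of linear regression over 480-1500 s.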

[1] = molecular target: T2, human endothelial lipase (EL) (Homo sapiens, UniProt Q9Y5X9); experiment: Endothelial Lipase Assay, cell surface lipase activity (human); assay type: cell-based; settings: cells expressing human EL, PLA1 substrate 10 μM, fluorescence reaction rate; several values in a cell are repeat determinations
T2 construct: host or cells: cells expressing human endothelial lipase
T2 sequence (Q9Y5X9 21-500): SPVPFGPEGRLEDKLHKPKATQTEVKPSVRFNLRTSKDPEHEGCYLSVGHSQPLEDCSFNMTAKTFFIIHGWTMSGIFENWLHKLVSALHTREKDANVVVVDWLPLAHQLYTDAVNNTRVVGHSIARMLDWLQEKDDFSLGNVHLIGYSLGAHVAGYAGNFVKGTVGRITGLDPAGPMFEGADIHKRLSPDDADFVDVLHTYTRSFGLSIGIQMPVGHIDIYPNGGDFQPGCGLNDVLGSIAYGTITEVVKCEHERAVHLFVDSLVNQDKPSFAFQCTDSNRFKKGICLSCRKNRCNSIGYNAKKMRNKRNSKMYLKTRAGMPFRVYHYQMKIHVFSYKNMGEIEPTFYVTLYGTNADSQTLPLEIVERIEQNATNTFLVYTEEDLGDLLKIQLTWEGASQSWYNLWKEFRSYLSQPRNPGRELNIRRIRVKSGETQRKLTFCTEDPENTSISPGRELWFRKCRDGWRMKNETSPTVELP
How it was run: as §1

| IC50 (Mouse EL) | IC50 [1] | Structure (SMILES) |
| --- | --- | --- |
| 0.051 µM | 0.078 µM | Cc1cc(COc2ccc(-c3nnc(CNC(=O)C(=O)CCCCCCc4ccccc4)s3)cc2)ccn1 [Compound 174] |
| 27 µM | 27.9 µM | O=C(CCCCCNc1ncccn1)C(=O)NCc1nnc(-c2ccc(OCc3ccccc3)cc2)o1 [Compound 176] |
| 7.32 µM | 11.6 µM | O=C(CCCCCCc1ccccc1)C(=O)NCc1nnc(-c2ccncc2)o1 [Compound 178] |
| 0.135 µM | 0.247 µM | O=C(CCCCCCc1ccccc1)C(=O)NCc1nnc(-c2ccc(Oc3ccccc3)cc2)o1 [Compound 179] |
